Measurements published in US20260001928A1 (CORTERIA PHARMACEUTICALS, priority 2022, published 2026).
*1 amine or outer side, *2 acyl side, *3 side chain or, on linkers, in order; H or OH if unused. Where a SMILES comes first, the peptide text is derived from it. Side-chain parts run from the residue outwards. [ ]: non-standard residue; d: D form. The star is where a group is joined. C18 diacid = O=C(O)CCCCCCCCCCCCCCCCC(=O)*; C16 diacid = O=C(O)CCCCCCCCCCCCCCC(=O)*; γGlu = O=C(O)[C@H](CCC(=O)[*:2])N[*:1]; NMeI = CC[C@H](C)[C@H](NC)C(=O)O; Dap = NC[C@H](N)C(=O)O; AEEA = NCCOCCOCC(=O)O; Aib = CC(C)(N)C(=O)O

Experiments:
[1] = biological target: T1, human CRF2a receptor (Homo sapiens, UniProt Q13324); assay: Activity at human CRF2a receptor, cAMP functional assay in TeloHEAC cells; type: cell-based; conditions: TeloHEAC cells stably expressing human CRF2a receptor, relative to urocortin 2 (100 nM = 100%)
T1 construct: expressed in transfected cells; host or cells: TeloHEAC cells
T1 sequence (Q13324 1-411): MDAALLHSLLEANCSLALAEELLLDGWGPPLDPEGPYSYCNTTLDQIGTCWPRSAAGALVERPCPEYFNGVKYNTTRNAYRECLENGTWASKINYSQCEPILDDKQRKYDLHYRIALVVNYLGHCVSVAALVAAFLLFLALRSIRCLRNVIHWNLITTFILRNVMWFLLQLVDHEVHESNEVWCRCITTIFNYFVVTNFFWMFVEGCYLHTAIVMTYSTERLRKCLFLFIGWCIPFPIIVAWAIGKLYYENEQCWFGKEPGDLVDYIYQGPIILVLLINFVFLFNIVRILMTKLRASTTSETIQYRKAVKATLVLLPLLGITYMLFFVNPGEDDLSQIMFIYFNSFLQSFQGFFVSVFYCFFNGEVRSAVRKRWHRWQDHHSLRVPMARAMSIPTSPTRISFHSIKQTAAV
Outline: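 TeloHEAC cells stably expressing human CRF2a (10000 cells/well) were treated with 16-point 1:2 compound dilutions in HBSS/20 mM HEPES with IBMX for 30 min at 37° C. cAMP was read by HTRF (665/620 nm ratio). EC50 was the concentration giving 50% activation, with 100 nM urocortin 2 set as 100%.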

[2] = biological target: T2, CFR1R receptor (Homo sapiens, UniProt P34998); assay: Activity at anti-target CFR1R receptor, cAMP assay in CRF1R-overexpression CHO-K1 cells; type: cell-based; conditions: 100% = Sauvagine at 100 nM; for EC50: cAMP
T2 construct: host or cells: CHO-K1 (clone 2)
T2 sequence (P34998 24-415): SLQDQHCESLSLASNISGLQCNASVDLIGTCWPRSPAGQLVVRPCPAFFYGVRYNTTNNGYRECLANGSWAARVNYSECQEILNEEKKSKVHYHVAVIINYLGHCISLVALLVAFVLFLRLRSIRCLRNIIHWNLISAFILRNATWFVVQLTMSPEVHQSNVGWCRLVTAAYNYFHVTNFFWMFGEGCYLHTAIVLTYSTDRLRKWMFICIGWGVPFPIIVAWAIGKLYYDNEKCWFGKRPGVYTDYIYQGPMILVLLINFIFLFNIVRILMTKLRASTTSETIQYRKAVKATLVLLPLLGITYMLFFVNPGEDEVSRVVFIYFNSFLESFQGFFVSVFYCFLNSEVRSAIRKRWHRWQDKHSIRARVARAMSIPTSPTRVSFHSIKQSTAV
Outline: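 cAMP readout in CRF1R-overexpressing CHO-K1 cells (clone 2), run as for the TeloHAEC assay at 4000 cells/well final. Cells came from cryopreserved banks. Sauvagine at 100 nM defined 100% activation.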

[3] = Chemical stability in buffer (pH 7.4 / pH 4.5), % purity loss; type: physicochemical; conditions: 40° C. vs 5° C., 14 or 28 days; for Buffer stability pH 4.5 % purity loss: 100 mM acetate buffer pH 4.5; for Buffer stability pH 7.4 % purity loss: 100 mM phosphate buffer pH 7.4
Outline: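 Compounds dissolved at 10 mg/mL target in 100 mM phosphate (pH 7.4) or 100 mM acetate (pH 4.5) buffer for 1 h at room temperature, then centrifuged. Diluted supernatant stored at 5 °C or 40 °C for 14 or 28 days; % purity loss by LC-UV.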

[4] = test system: Sprague Dawley rats; assay: Effect on systolic blood pressure, telemetry in Sprague Dawley rats; type: in vivo, rat; conditions: 0.1 mg/kg SC; for Systolic blood pressure (Mean) % change from baseline, 8 h / Systolic blood pressure (Mean) % change from baseline, 12 h / Systolic blood pressure (Mean) % change from baseline, 24 h: n=2; for Duration of action: last time point with an effect on BP still observed
Outline: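 Sprague Dawley rats with abdominal-aorta telemetry catheters, recovered ≥10 days, received 0.1 mg/kg SC of compound or vehicle. Systolic pressure recorded 1 h pre-dose as baseline, then continuously up to 48 hours, expressed as % change from baseline; duration of action is last time point with a BP effect (n=2).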

| EC50 [1] [pM] | Emax (% I) [2] [% I] | EC50 [2] [pM] | Buffer stability pH 4.5 % purity loss [3] | Buffer stability pH 7.4 % purity loss [3] [%] | Compound | Systolic blood pressure (Mean) % change from baseline, 8 h [4] [%] | Systolic blood pressure (Mean) % change from baseline, 12 h [4] [%] | Systolic blood pressure (Mean) % change from baseline, 24 h [4] [%] | Duration of action [4] [h] |
| --- | --- | --- | --- | --- | --- | --- | --- | --- | --- |
| 420 | 5 | > 250000 | 28.9% | 73.5 | CC[C@H](C)[C@H](NC(C)=O)C(=O)N[C@H](C(=O)N[C@@H](CC(C)C)C(=O)N[C@@H](CO)C(=O)N[C@@H](CC(C)C)C(=O)N[C@@H](CC(=O)O)C(=O)N[C@@H](C(=O)N1CCC[C@H]1C(=O)N[C@H](C(=O)N[C@@H](CCCCN)C(=O)N[C@@H](CC(C)C)C(=O)N[C@@H](CCCCNC(=O)CC[C@H](NC(=O)CCCCCCCCCCCCCCC(=O)O)C(=O)O)C(=O)N[C@@H](CCCCN)C(=O)N[C@H](C(=O)N[C@@H](CC(C)C)C(=O)N[C@@H](CC(C)C)C(=O)N[C@@H](CCC(=O)O)C(=O)N[C@@H](CCC(N)=O)C(=O)N[C@@H](CCC(=O)O)C(=O)N[C@@H](CCCCN)C(=O)N[C@@H](CCC(N)=O)C(=O)N[C@@H](CCCCN)C(=O)N[C@@H](CCCCN)C(=O)N[C@@H](CCC(N)=O)C(=O)N[C@@H](CCCNC(=N)N)C(=O)N[C@@H](CCC(=O)O)C(=O)N[C@@H](CCC(N)=O)C(=O)N[C@@H](C)C(=O)N[C@@H](CCC(=O)O)C(=O)N[C@H](C(=O)N[C@@H](CC(N)=O)C(=O)N[C@@H](CN)C(=O)N[C@@H](CCC(N)=O)C(=O)N[C@H](C(=O)N[C@@H](CC(C)C)C(=O)N[C@@H](C)C(=O)N[C@@H](CCC(N)=O)C(=O)N[C@H](C(N)=O)C(C)C)[C@@H](C)CC)[C@@H](C)O)[C@@H](C)CC)[C@@H](C)CC)C(C)C)C(C)C [compound 55] (Ac-IVLSLD[dV]PIKLK([γGlu-C16 diacid])KILLEQEKQKKQREQAETN[Dap]QILAQV-NH2) | −31 | −23 | 0 | 23 |
| 190 | 4 | > 250000 | nd/0 ^ % | – | CC[C@H](C)[C@H](NC)C(=O)N[C@H](C(=O)N[C@@H](CC(C)C)C(=O)N[C@@H](CO)C(=O)N[C@@H](CC(C)C)C(=O)N[C@@H](CC(=O)O)C(=O)N[C@@H](C(=O)N1CCC[C@H]1C(=O)N[C@H](C(=O)N[C@@H](CCCCN)C(=O)N[C@@H](CC(C)C)C(=O)N[C@@H](CCCCNC(=O)CC[C@H](NC(=O)CCCCCCCCCCCCCCC(=O)O)C(=O)O)C(=O)N[C@@H](CCCCN)C(=O)N[C@H](C(=O)N[C@@H](CC(C)C)C(=O)N[C@@H](CC(C)C)C(=O)N[C@@H](CCC(=O)O)C(=O)N[C@@H](CCC(N)=O)C(=O)N[C@@H](CCC(=O)O)C(=O)N[C@@H](CCCCN)C(=O)N[C@@H](CCC(N)=O)C(=O)N[C@@H](CCCCN)C(=O)N[C@@H](CCCCN)C(=O)N[C@@H](CCC(N)=O)C(=O)N[C@@H](CCCNC(=N)N)C(=O)N[C@@H](CCC(=O)O)C(=O)N[C@@H](CCC(N)=O)C(=O)N[C@@H](C)C(=O)N[C@@H](CCC(=O)O)C(=O)N[C@H](C(=O)N[C@@H](CC(N)=O)C(=O)NC(C)(C)C(=O)N[C@@H](CCC(N)=O)C(=O)N[C@H](C(=O)N[C@@H](CC(C)C)C(=O)N[C@@H](C)C(=O)N[C@@H](CCC(N)=O)C(=O)N[C@H](C(N)=O)C(C)C)[C@@H](C)CC)[C@@H](C)O)[C@@H](C)CC)[C@@H](C)CC)C(C)C)C(C)C [compound 64] (H-[NMeI]VLSLD[dV]PIKLK([γGlu-C16 diacid])KILLEQEKQKKQREQAETN[Aib]QILAQV-NH2) | −25 | −13 | 3 | 23 |
| 410 | 8 | > 250000 | 0% | 13.2 | CC[C@H](C)[C@H](NC(C)=O)C(=O)N[C@H](C(=O)N[C@@H](CC(C)C)C(=O)N[C@@H](CO)C(=O)N[C@@H](CC(C)C)C(=O)N[C@@H](CC(=O)O)C(=O)N[C@@H](C(=O)N1CCC[C@H]1C(=O)N[C@H](C(=O)N[C@@H](CCCCN)C(=O)N[C@@H](CC(C)C)C(=O)N[C@@H](CCCCNC(=O)COCCOCCNC(=O)COCCOCCNC(=O)CC[C@H](NC(=O)CCCCCCCCCCCCCCCCC(=O)O)C(=O)O)C(=O)N[C@@H](CCCCN)C(=O)N[C@H](C(=O)N[C@@H](CC(C)C)C(=O)N[C@@H](CC(C)C)C(=O)N[C@@H](CCC(=O)O)C(=O)N[C@@H](CCC(N)=O)C(=O)N[C@@H](CCC(=O)O)C(=O)N[C@@H](CCCCN)C(=O)N[C@@H](CCC(N)=O)C(=O)N[C@@H](CCCCN)C(=O)N[C@@H](CCCCN)C(=O)N[C@@H](CCC(N)=O)C(=O)N[C@@H](CCCNC(=N)N)C(=O)N[C@@H](CCC(=O)O)C(=O)N[C@@H](CCC(N)=O)C(=O)N[C@@H](C)C(=O)N[C@@H](CCC(=O)O)C(=O)N[C@H](C(=O)N[C@@H](CC(N)=O)C(=O)N[C@@H](C)C(=O)N[C@@H](CCC(N)=O)C(=O)N[C@H](C(=O)N[C@@H](CC(C)C)C(=O)N[C@@H](C)C(=O)N[C@@H](CCC(N)=O)C(=O)N[C@H](C(N)=O)C(C)C)[C@@H](C)CC)[C@@H](C)O)[C@@H](C)CC)[C@@H](C)CC)C(C)C)C(C)C [compound 100] (Ac-IVLSLD[dV]PIKLK([AEEA-AEEA-γGlu-C18 diacid])KILLEQEKQKKQREQAETNAQILAQV-NH2) | −22 | −12 | −9 | >24 |
| 350 | 6 | > 250000 | 0% | 14.7 | CC[C@H](C)[C@H](NC)C(=O)N[C@H](C(=O)N[C@@H](CC(C)C)C(=O)N[C@@H](CO)C(=O)N[C@@H](CC(C)C)C(=O)N[C@@H](CC(=O)O)C(=O)N[C@@H](C(=O)N1CCC[C@H]1C(=O)N[C@H](C(=O)N[C@@H](CCCCN)C(=O)N[C@@H](CC(C)C)C(=O)N[C@@H](CCCCNC(=O)COCCOCCNC(=O)COCCOCCNC(=O)CC[C@H](NC(=O)CCCCCCCCCCCCCCCCC(=O)O)C(=O)O)C(=O)N[C@@H](CCCCN)C(=O)N[C@H](C(=O)N[C@@H](CC(C)C)C(=O)N[C@@H](CC(C)C)C(=O)N[C@@H](CCC(=O)O)C(=O)N[C@@H](CCC(N)=O)C(=O)N[C@@H](CCC(=O)O)C(=O)N[C@@H](CCCCN)C(=O)N[C@@H](CCC(N)=O)C(=O)N[C@@H](CCCCN)C(=O)N[C@@H](CCCCN)C(=O)N[C@@H](CCC(N)=O)C(=O)N[C@@H](CCCNC(=N)N)C(=O)N[C@@H](CCC(=O)O)C(=O)N[C@@H](CCC(N)=O)C(=O)N[C@@H](C)C(=O)N[C@@H](CCC(=O)O)C(=O)N[C@H](C(=O)N[C@@H](CC(N)=O)C(=O)N[C@@H](C)C(=O)N[C@@H](CCC(N)=O)C(=O)N[C@H](C(=O)N[C@@H](CC(C)C)C(=O)N[C@@H](C)C(=O)N[C@@H](CCC(N)=O)C(=O)N[C@H](C(N)=O)C(C)C)[C@@H](C)CC)[C@@H](C)O)[C@@H](C)CC)[C@@H](C)CC)C(C)C)C(C)C [compound 113] (H-[NMeI]VLSLD[dV]PIKLK([AEEA-AEEA-γGlu-C18 diacid])KILLEQEKQKKQREQAETNAQILAQV-NH2) | −31 | −24 | −7 | >24 |
